{"source": "patent US20250281462A1", "about": "“THERAPEUTICALLY EFFECTIVE ORAL ADMINISTRATION OF A 2 ARYLBENZIMIDAZOLE” (Tranquis Therapeutics, Inc., priority 2021, published 2025)", "key": {"Ppargc1α (PGC-1α)": {"tested_on": "Ppargc1α (PGC-1α)", "conditions": "Zhang et al., Diabetes 62:1297-1307 (2013); cited from earlier work"}, "[1]": {"assay": "Plasma concentrations after single intravenous dose in rats", "format": "in vivo", "conditions": "male, Sprague Dawley, rat, 0.5 mg/kg intravenous", "experimental": "A total of 3 male, 7-9 week old, Sprague Dawley rats from Vital River were administered a single intravenous dose of TQS-168 at 0.5 mg/kg, in a volume of 0.5 mL/kg. TQS-168 was prepared in solution of 31.6% DMAC+36.8% ethanol+31.6% propylene glycol.\nBlood samples were collected at 0.5, 3, 10, 30, 60, 120, 240, 480 and 720 minutes after a single dose of TQS-168 and then processed. Blood samples were collected via saphenous vein puncture into a K2EDTA tube, centrifuged at 4° C. at 4600 rpm for 5 minutes, and plasma collected and stored at less than −20° C. prior to being analyzed by LC-MS for TQS-168 concentrations. Data are presented as concentrations of TQS-168 (ng/mL) in plasma and graphed in FIG. 15 (individual rats) and 16 (average)."}, "TNFα": {"tested_on": "TNFα", "assay": "TNFα release by LPS-stimulated BV2 cells (ELISA)", "format": "cell-based, murine", "experimental": "First, 100 μL of supernatant was removed from Cell Plate and transferred to a Dilution Plate, which was then centrifuged at 216×g for 10 minutes to remove particulates. The dilution plate was either assayed immediately or aliquots were taken and stored at ≤−20° C.; repeated freeze-thaw cycles were avoided.\nNext, a standard curve was prepared by first pipetting 900 ul of Calibrator Diluent RD5K into the […] tube, followed by 200 μl of the appropriate calibrator diluent in the remaining tubes. The stock solution was used to produce a dilution. The resulting tubes were then thoroughly mixed. The Mouse TNFα Standard ([…]) served as the high standard, and the Calibrator Diluent RD5T served as the zero standard at 0 pg/ml.\nAssay Diluent RD1-63 (50 uL) was then added to the center of each well and mixed before and during its use. Then, 50 ul of either standard, control, or sample was added to the center of each well, and covered with adhesive strip. […]\nSubstrate solution (100 uL) was then added to each well, incubated in the dark for 30 minutes at room temperature, followed by addition of 100 μl of Stop Solution and mixed. The optical density of each well was determined within 30 minutes by using a microplate reader set to 450 nm.\nPlates were read on a Spectrostar Nano machine with built-in MARS data analysis at […] and 570 nM. […]"}, "[2]": {"tested_on": "murine models of neurodegenerative diseases", "conditions": "mice, oral 25-50 mg/kg; Parkinson's disease, Alzheimer's disease, ALS models; cited from earlier work"}, "TNF-α": {"tested_on": "TNF-α", "assay": "LPS-induced TNF-α production by primary human myeloid cells (PBMC, CBA)", "format": "cell-based", "conditions": "100 ng/mL LPS, 24 hours", "experimental": "Peripheral blood mononuclear cells (PBMC) from 4 different healthy volunteers were used in this study. Fresh blood samples were collected at Stanford Blood Center and processed for PBMC isolation with Ficoll gradient. PBMC samples were stored in liquid nitrogen at […] for subsequent analysis of TNF-α production. For TNF-α stimulation, frozen PBMC samples were thawed and rested at 37° C. before cells were stimulated with 100 ng/ml of LPS for 24 hours. DMSO (1:1000 final dilution) or TQS-168 in DMSO (1:1000 final dilution) at various concentrations was added to cell cultures of LPS-stimulated PBMC to evaluate the effects of T-168 on TNF-α production by human primary myeloid cells. After 24 hours stimulation, supernatant samples from various conditions were collected and TNF-α concentrations in the supernatants analyzed with cytometric bead array (CBA) assay per protocols from BD Biosciences. TNF-α was quantified by median fluorescent intensity reading (MFI). Samples were analyzed directly after staining with LSRII flow cytometer."}}, "data": [{"smiles": "CC(C)(C)c1ccc(-c2nc3ccccc3[nH]2)cc1", "note": "[TQS-168, 2-(4-tert-butylphenyl)-1H-benzimidazole]", "values": [{"measurement": "effect on Ppargc1α (PGC-1α) gene expression", "setting": "Ppargc1α (PGC-1α)", "value": "activator"}, {"measurement": "half-life", "setting": "[1]", "value": 9.72, "unit": "min"}, {"measurement": "clearance", "setting": "[1]; read-out: clearance rate (converted)", "value": 155, "unit": "mL/min/kg"}, {"measurement": "suppression of TNFα production", "setting": "TNFα; BV-2 cells, 0.3 ng/mL LPS, 10 μM TQS-168, ELISA, 24 hours", "value": "about 25%"}, {"measurement": "inhibition at 10 µM", "setting": "TNFα; Mus musculus, BV-2, 24 h, read-out: inhibition of TNFα production", "value": "~35", "unit": "%"}, {"measurement": "myeloid-mediated inflammation and disease severity", "setting": "[2]", "value": "suppress myeloid-mediated inflammation and reduce disease severity"}, {"measurement": "suppression of TNFα production vs no treatment", "setting": "TNF-α; 5 μM", "value": "statistically significant suppression"}, {"measurement": "suppression of TNFα production vs no treatment", "setting": "TNF-α; 20 μM", "value": "statistically significant suppression"}]}]}
